Source: patent publication US20140128352A1, “COMPOUNDS AND METHODS FOR MODULATING MITOCHONDRIAL METABOLISM AND REACTIVE OXYGEN SPECIES PRODUCTION” (Buck Institute for Research on Aging, priority 2012, published 2014)
“Also recorded” adds a separate entry of the source.

Tests used:
mitochondrial GPDH = biological target: T1, mitochondrial GPDH (Rattus norvegicus, UniProt P35571); assay: Mitochondrial GPDH activity (DCPIP reduction); format: biochemical
T1 construct: The activity of GPDH in intact mitochondria (0.3 mg/mL) was measured; from tissue; host or cells: rat skeletal muscle mitochondria (Wistar, Harlan Laboratories)
T1 sequence (P35571 43-727): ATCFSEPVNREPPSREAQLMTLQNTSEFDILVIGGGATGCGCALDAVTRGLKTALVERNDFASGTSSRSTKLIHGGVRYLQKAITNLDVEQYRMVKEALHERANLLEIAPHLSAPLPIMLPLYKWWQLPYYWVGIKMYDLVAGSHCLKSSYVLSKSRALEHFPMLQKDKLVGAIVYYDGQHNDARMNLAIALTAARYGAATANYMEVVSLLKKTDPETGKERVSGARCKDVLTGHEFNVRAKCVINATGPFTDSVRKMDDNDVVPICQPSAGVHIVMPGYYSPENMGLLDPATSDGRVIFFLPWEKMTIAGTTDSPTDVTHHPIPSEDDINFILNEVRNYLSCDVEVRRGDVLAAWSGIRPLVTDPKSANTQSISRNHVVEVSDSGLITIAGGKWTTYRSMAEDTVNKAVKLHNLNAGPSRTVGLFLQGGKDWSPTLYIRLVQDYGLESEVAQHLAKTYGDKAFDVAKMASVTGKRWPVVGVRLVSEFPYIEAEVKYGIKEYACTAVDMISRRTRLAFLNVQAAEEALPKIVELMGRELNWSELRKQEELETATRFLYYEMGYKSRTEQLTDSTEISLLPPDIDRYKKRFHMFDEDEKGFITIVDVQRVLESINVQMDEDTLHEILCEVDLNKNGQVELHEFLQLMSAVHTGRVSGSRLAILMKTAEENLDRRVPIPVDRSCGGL

site IQ = assay: ROS production with NADH and cytochrome b566 reduction states, mitochondria respiring on CI substrates; format: biochemical, rat; conditions: 2.5 uM, ATP synthesis restricted
Source text: The contribution of site IQ to total ROS production under “normal” circumstances (e.g. when electrons enter CI primarily in the forward direction) remains contentious. […] A possible explanation for this difference is the leak of electrons from site IQ as both Q-pool reduction and PMF remained high in the absence of energy production. To test if site IQ is indeed active under such conditions, we used Compound No. 4 to non-invasively probe mitochondrial ROS production in this system. […] It is believed that even under extreme conditions in which forward electron flow through CI dominates, this provides evidence that site IQ can be a relevant source of ROS.
The rate of ROS production from site IF is linked to the reduction state of the NAD(P)H pool in the mitochondrial matrix (Treberg et al., 2011; Quinlan et al, submitted). Therefore, to evaluate the mechanism of action of putative IF ROS inhibitors, the effect of candidate compounds on the relationship between site IF ROS production and NAD(P)H reduction was tested. NAD(P)H reduction was monitored in isolated mitochondria (0.3 mg/mL) on a Varian Cary Eclipse fluorimeter (ex 365/em 450 nm) as described by Treberg et al., 2011 except the reduction state was slowly titrated with increasing rotenone (0.08 to 4 uM) in the presence of saturating malate (5 mM) and the uncoupler FCCP. Glutamate (5 mM) was added to achieve 100% reduction. […]

site IF = biological target: T2, site IF (Rattus norvegicus, UniProt Q5XIH3); assay: Relationship of site IF ROS production to steady state matrix NAD(P)H reduction; format: biochemical; conditions: high NADH reduction (>90%)
T2 construct: freshly isolated muscle mitochondria were assayed; from tissue; host or cells: rat skeletal muscle mitochondria (Wistar, Harlan Laboratories)
Description: The rate of ROS production from site IF is linked to the reduction state of the NAD(P)H pool in the mitochondrial matrix (Treberg et al., 2011; Quinlan et al, submitted). Therefore, to evaluate the mechanism of action of putative IF ROS inhibitors, the effect of candidate compounds on the relationship between site IF ROS production and NAD(P)H reduction was tested.

T2 sequence (Q5XIH3 21-464 limits assumed): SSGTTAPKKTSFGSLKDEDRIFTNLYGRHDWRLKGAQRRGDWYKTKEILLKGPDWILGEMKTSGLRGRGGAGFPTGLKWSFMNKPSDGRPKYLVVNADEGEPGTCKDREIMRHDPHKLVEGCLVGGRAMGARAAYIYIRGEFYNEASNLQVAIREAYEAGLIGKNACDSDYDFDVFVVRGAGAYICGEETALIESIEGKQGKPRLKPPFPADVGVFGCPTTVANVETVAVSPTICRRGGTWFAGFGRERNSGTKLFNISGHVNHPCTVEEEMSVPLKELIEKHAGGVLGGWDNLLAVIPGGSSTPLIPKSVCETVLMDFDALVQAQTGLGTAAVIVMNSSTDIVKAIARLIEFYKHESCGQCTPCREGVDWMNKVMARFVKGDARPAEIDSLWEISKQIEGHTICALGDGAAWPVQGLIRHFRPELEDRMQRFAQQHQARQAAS

## O=C(O)CCC(=O)Nc1ccc(-c2nc3cc4ccccc4cc3[nH]2)cc1 [Compound 61]
Mitochondrial GPDH
  kinetics of inhibition of GPDH activity: mixed inhibition kinetics
  potency at inhibiting GPDH activity relative to Compound No. 46: at least 6 times

## O=[N+]([O-])c1ccc(Oc2ccc(S(=O)(=O)NC3CCCCC3)cc2)cc1 [Compound 4]
Site IQ
  observed ROS production and NADH / b566 reduction states: lowered the observed ROS production without any changes to the NADH or b566 reduction states

## Cc1ccc(C)c(CN(CCCN(C)C)CCCN(C)C)c1 [Compound 32]
Site IF
  ROS production from site IF in relation to NADH reduction: lowers the amount of ROS production from site IF as the matrix NADH pool becomes strongly reduced; also recorded: the expected ROS production was suppressed
